Assay results from ChEMBL document CHEMBL2046294, “Lipo-γ-AApeptides as a new class of potent and broad-spectrum antimicrobial agents” (J Med Chem, 2012).
Converted amounts (≈) assume the structure as drawn. The source made the active and inactive calls. The calls are words filed in the database; no cut-off is given here.

Legend:
[1] = test system: Bacillus subtilis; assay: Antibacterial activity against Bacillus subtilis BR151 after 24 hrs by broth micro-dilution method; type: functional; details: BR151, 24 h
[2] = test system: Escherichia coli; assay: Antibacterial activity against Escherichia coli JM109 after 24 hrs by broth micro-dilution method; type: functional; details: JM109, 24 h
[3] = test system: Staphylococcus aureus; assay: Antibacterial activity against methicillin-resistant Staphylococcus aureus ATCC 33592 after 24 hrs by broth micro-dilution method; type: functional; details: ATCC 33592, 24 h
[4] = test system: Klebsiella pneumoniae; assay: Antibacterial activity against Klebsiella pneumoniae ATCC 13383 after 24 hrs by broth micro-dilution method; type: functional; details: ATCC 13383, 24 h
[5] = test system: Candida albicans; assay: Antifungal activity against Candida albicans ATCC 10231 after 48 hrs by broth micro-dilution method; type: functional; details: ATCC 10231, 48 h
[6] = test system: Staphylococcus epidermidis; assay: Antibacterial activity against multidrug-resistant Staphylococcus epidermidis RP62A after 24 hrs by broth micro-dilution method; type: functional
[7] = Toxicity in human RBC assessed as hemolysis after 1 hr; type: cell-based, Erythrocyte; details: for HC10: erythrocyte, 1 h; for HC50 at 1 h: red blood cells
[8] = test system: Pseudomonas aeruginosa; assay: Antibacterial activity against multidrug-resistant Pseudomonas aeruginosa ATCC 27853 after 24 hrs by broth micro-dilution method; type: functional; details: ATCC 27853, 24 h
[9] = test system: Enterococcus faecalis; assay: Antibacterial activity against vancomycin-resistant Enterococcus faecalis ATCC 700802 after 24 hrs by broth micro-dilution method; type: functional; details: ATCC 700802, 24 h
[10] = Selectivity ratio of HC50 for human RBC to MIC for methicillin-resistant Staphylococcus aureus ATCC 33592; type: functional
[11] = test system: Staphylococcus aureus; assay: Antibacterial activity against methicillin-resistant Staphylococcus aureus ATCC 33592 assessed as lipid membrane depolarization after 10 mins by DiSC3-5 staining-based fluorescence analysis; type: functional, organism-based
[12] = Selectivity for Escherichia coli JM109 over mouse N2A cells expressing amyloid precursor protein
[13] = Selectivity for Klebsiella pneumoniae ATCC 13383 over mouse N2A cells expressing amyloid precursor protein
[14] = test system: Escherichia coli; assay: Antibacterial activity against Escherichia coli JM109 assessed as membrane disruption at 10 ug/ml after 2 hrs by DAPI staining-based fluorescence microscopic analysis; type: functional, organism-based
[15] = test system: Escherichia coli; assay: Antibacterial activity against Escherichia coli JM109 assessed as membrane disruption at 10 ug/ml after 2 hrs by propidium iodide staining-based fluorescence microscopic analysis; type: functional, organism-based
[16] = test system: Bacillus subtilis; assay: Antibacterial activity against Bacillus subtilis BR151 assessed as loss membrane potential at 10 ug/ml; type: functional, organism-based
[17] = Selectivity for Bacillus subtilis BR151 over mouse N2A cells expressing amyloid precursor protein
[18] = test system: Bacillus subtilis; assay: Antibacterial activity against Bacillus subtilis BR151 assessed as membrane disruption at 10 ug/ml after 2 hrs by DAPI staining-based fluorescence microscopic analysis; type: functional, organism-based
[19] = test system: N2a; assay: Toxicity against mouse N2A cells expressing amyloid precursor protein up to 50 ug/ml after 36 hrs by MTT assay; type: cell-based
[20] = test system: N2a; assay: Toxicity against mouse N2A cells expressing amyloid precursor protein up to 100 ug/ml after 36 hrs by MTT assay; type: cell-based
[21] = test system: Escherichia coli; assay: Antibacterial activity against Escherichia coli JM109 assessed as loss membrane potential at 10 ug/ml; type: functional, organism-based
[22] = test system: Bacillus subtilis; assay: Antibacterial activity against Bacillus subtilis BR151 assessed as membrane disruption at 10 ug/ml after 2 hrs by propidium iodide staining-based fluorescence microscopic analysis; type: functional, organism-based
[23] = test system: Staphylococcus aureus; assay: Antibacterial activity against methicillin-resistant Staphylococcus aureus ATCC 33592 grown on half-MIC concentration for 17 passages measured after 17 days by broth-microdilution method; type: functional, organism-based
[24] = test system: Staphylococcus aureus; assay: Resistance ratio, MIC for methicillin-resistant Staphylococcus aureus ATCC 33592 grown on half-MIC concentration for 3 passages to MIC for methicillin-resistant Staphylococcus aureus ATCC 33592 after 24 hrs; type: functional

| SMILES | MIC [1] [µg/mL] | MIC [2] [µg/mL] | MIC [3] [µg/mL] | MIC [4] [µg/mL] | MIC [5] [µg/mL] | MIC [6] [µg/mL] | HC10 [7] [µg/mL] | HC50 at 1 h [7] [µg/mL] | MIC [8] [µg/mL] | MIC [9] [µg/mL] | Ratio [10] | Activity [11] | other results |
| --- | --- | --- | --- | --- | --- | --- | --- | --- | --- | --- | --- | --- | --- |
| CC(=O)N(CC(=O)N[C@@H](C)CN(CC(=O)N[C@@H](CC(C)C)CN(CC(=O)N[C@@H](CC(C)C)CN(CC(=O)N[C@@H](CC(C)C)CN(CC(N)=O)C(=O)CCCN)C(=O)CCCN)C(=O)CCCN)C(C)=O)C[C@H](C)N | > 100 | > 100 | > 100 | > 100 | > 100 | > 100 | 120 | > 500 | > 100 | > 100 | – | – | – |
| CCCCCCCCCCCCCCCC(=O)N[C@@H](CCCCN)CN(CC(=O)N[C@@H](CCCCN)CN(CC(N)=O)C(=O)CCCN)C(=O)CCCN | 1.5 (≈ 1.95 µM) | 30 (≈ 39.1 µM) | 5 (≈ 6.51 µM) | 20 (≈ 26 µM) | 2 (≈ 2.6 µM) | 2.5 (≈ 3.25 µM) | 40 | 300 | 20 (≈ 26 µM) | 8 (≈ 10.4 µM) | 60 | Active | – |
| CCCCCCCC/C=C\CCCCCCCC(=O)N[C@@H](CCCCN)CN(CC(N)=O)C(=O)CCCN | 2 (≈ 3.72 µM) | 2.5 (≈ 4.65 µM) | 4 (≈ 7.44 µM) | 35 (≈ 65.1 µM) | 2 (≈ 3.72 µM) | 2 (≈ 3.72 µM) | 40 | 100 | 3 (≈ 5.58 µM) | 2.5 (≈ 4.65 µM) | 25 | Active | – |
| CCCCCCCCCCCCCCCC(=O)N[C@@H](C)CN(CC(=O)N[C@@H](C)CN(CC(=O)N[C@@H](CC(C)C)CN(CC(=O)N[C@@H](CC(C)C)CN(CC(=O)N[C@@H](CC(C)C)CN(CC(N)=O)C(=O)CCCN)C(=O)CCCN)C(=O)CCCN)C(C)=O)C(C)=O | 2.5 (≈ 1.94 µM) | 2.5 (≈ 1.94 µM) | 4 (≈ 3.1 µM) | 5 (≈ 3.87 µM) | 5 (≈ 3.87 µM) | 4 (≈ 3.1 µM) | 60 | > 500 | 5 (≈ 3.87 µM) | 5 (≈ 3.87 µM) | > 125 | Active | Ratio [12]: 10; Ratio [13]: 10; Activity [14]: Active; Activity [15]: Active; Activity [16]: Active; Ratio [17]: 10; Activity [18]: Active; Activity [19]: Non-toxic; Activity [20]: 50%; Activity [21]: Active; Activity [22]: Active; Activity [23]: Active |
| CCCCCCCC/C=C\CCCCCCCC(=O)N[C@@H](C)CN(CC(=O)N[C@@H](C)CN(CC(=O)N[C@@H](CC(C)C)CN(CC(=O)N[C@@H](CC(C)C)CN(CC(=O)N[C@@H](CC(C)C)CN(CC(N)=O)C(=O)CCCN)C(=O)CCCN)C(=O)CCCN)C(C)=O)C(C)=O | 3 (≈ 2.28 µM) | 3 (≈ 2.28 µM) | 3 (≈ 2.28 µM) | 3 (≈ 2.28 µM) | 3 (≈ 2.28 µM) | 3 (≈ 2.28 µM) | 100 | > 500 | 3 (≈ 2.28 µM) | 4 (≈ 3.04 µM) | > 167 | Active | Activity [14]: Active; Activity [15]: Active; Activity [16]: Active; Activity [18]: Active; Activity [21]: Active; Activity [22]: Active |
| CCCCCCCC/C=C\CCCCCCCC(=O)N[C@@H](CCCCN)C(=O)N[C@@H](CCCCN)CN(CC(N)=O)C(=O)CCCN | 2 (≈ 3 µM) | 10 (≈ 15 µM) | 5 (≈ 7.51 µM) | 40 (≈ 60.1 µM) | 5 (≈ 7.51 µM) | 2 (≈ 3 µM) | 80 | > 500 | 15 (≈ 22.5 µM) | 2.5 (≈ 3.75 µM) | > 100 | Active | – |
| CCCCCCCCCCCCCCCC(=O)N[C@@H](CCCCN)CN(CC(=O)N[C@@H](CCCCN)CN(CC(=O)N[C@@H](CCCCN)CN(CC(N)=O)C(=O)CCCN)C(=O)CCCN)C(=O)CCCN | 1.5 (≈ 1.46 µM) | 20 (≈ 19.5 µM) | 5 (≈ 4.88 µM) | > 50 | 2 (≈ 1.95 µM) | 2 (≈ 1.95 µM) | 300 | > 500 | 15 (≈ 14.6 µM) | 10 (≈ 9.76 µM) | > 100 | Active | – |
| CCCCCCCC/C=C\CCCCCCCC(=O)N[C@@H](CCCCN)CN(CC(=O)N[C@@H](CCCCN)CN(CC(N)=O)C(=O)CCCN)C(=O)CCCN | 2.5 (≈ 3.15 µM) | 10 (≈ 12.6 µM) | 5 (≈ 6.3 µM) | 15 (≈ 18.9 µM) | 2 (≈ 2.52 µM) | 4 (≈ 5.04 µM) | 250 | > 500 | 3 (≈ 3.78 µM) | 5 (≈ 6.3 µM) | > 100 | Active | – |
| CCCCCCCCCCCCCCCC(=O)N[C@@H](C)CN(CC(=O)N[C@@H](C)CN(CC(=O)N[C@@H](CCCCN)CN(CC(=O)N[C@@H](CCCCN)CN(CC(=O)N[C@@H](CCCCN)CN(CC(N)=O)C(=O)CCCN)C(=O)CCCN)C(=O)CCCN)C(C)=O)C(C)=O | 2.5 (≈ 1.87 µM) | 2.5 (≈ 1.87 µM) | 10 (≈ 7.48 µM) | 15 (≈ 11.2 µM) | 7.5 (≈ 5.61 µM) | 10 (≈ 7.48 µM) | 200 | > 500 | 15 (≈ 11.2 µM) | 10 (≈ 7.48 µM) | > 50 | Active | – |
| CCCCCCCCCCCC(=O)N[C@@H](CCCCN)CN(CC(N)=O)C(=O)CCCN | > 50 | > 50 | > 50 | > 50 | > 50 | > 50 | 400 | > 500 | > 50 | > 50 | – | – | – |
| CCCCCCCCCCCCCCCC(=O)N[C@@H](C)CN(CC(=O)N[C@@H](C)CN(CC(=O)N[C@@H](Cc1ccccc1)CN(CC(=O)N[C@@H](Cc1ccccc1)CN(CC(=O)N[C@@H](Cc1ccccc1)CN(CC(N)=O)C(=O)CC(=O)O)C(=O)CC(=O)O)C(=O)CC(=O)O)C(C)=O)C(C)=O | > 100 | > 100 | > 100 | > 100 | > 100 | > 100 | 200 | > 500 | > 100 | > 100 | – | – | – |
| CCCCCCCCCCCCCCCC(=O)N[C@@H](C)CN(CC(=O)N[C@@H](C)CN(CC(=O)N[C@@H](CCC(=O)O)CN(CC(=O)N[C@@H](CCC(=O)O)CN(CC(=O)N[C@@H](CCC(=O)O)CN(CC(N)=O)C(=O)CC(=O)O)C(=O)CC(=O)O)C(=O)CC(=O)O)C(C)=O)C(C)=O | > 100 | > 100 | > 100 | > 100 | > 100 | > 100 | 250 | > 500 | > 100 | > 100 | – | – | – |
| CCn1cc(C(=O)O)c(=O)c2cc(F)c(N3CCNCC3)cc21 [NORFLOXACIN] | – | – | – | – | – | – | – | – | – | – | – | – | Ratio [24]: >20 |
| CCCCCCCCCCCCCCCC(=O)N[C@@H](CCCCN)CN(CC(N)=O)C(=O)CCCN | 1.5 (≈ 2.93 µM) | 2.5 (≈ 4.88 µM) | 2.5 (≈ 4.88 µM) | 35 (≈ 68.4 µM) | 2 (≈ 3.91 µM) | 2 (≈ 3.91 µM) | 25 | 40 | 10 (≈ 19.5 µM) | 2.5 (≈ 4.88 µM) | 16 | Active | – |
| CC(C)C[C@@H](CN(CC(=O)N[C@@H](CCCCN)CN(CC(N)=O)C(=O)CCc1ccccc1)C(=O)CCc1ccccc1)NC(=O)CN(C[C@H](CCCCN)NC(=O)CN(C[C@H](CCCCN)NC(=O)CN(C[C@H](CC(C)C)NC(=O)CN(C[C@H](CCCCN)NC(=O)CN(C[C@@H](N)CCCCN)C(=O)CCc1ccccc1)C(=O)CCc1ccccc1)C(=O)CCc1ccccc1)C(=O)CCc1ccccc1)C(=O)CCc1ccccc1 | 2 (≈ 0.947 µM) | 3 (≈ 1.42 µM) | 5 (≈ 2.37 µM) | 5 (≈ 2.37 µM) | 8 (≈ 3.79 µM) | 5 (≈ 2.37 µM) | 75 | 300 | > 50 | 5 (≈ 2.37 µM) | 60 | – | – |
